Source: US11524966B1 (Valo Early Discovery, Inc., priority 2017, dated 2022)

Target: T1, USP28 (USP28-5(1-1077)-TEV-6*His; LifeSensors) (Homo sapiens, UniProt Q96RU2)
T1 construct: construct USP28 (USP28-5(1-1077)-TEV-6*His; LifeSensors); TEV cleavage site (C); 6xHis (C); purchased LifeSensors
T1 sequence (Q96RU2 1-1077): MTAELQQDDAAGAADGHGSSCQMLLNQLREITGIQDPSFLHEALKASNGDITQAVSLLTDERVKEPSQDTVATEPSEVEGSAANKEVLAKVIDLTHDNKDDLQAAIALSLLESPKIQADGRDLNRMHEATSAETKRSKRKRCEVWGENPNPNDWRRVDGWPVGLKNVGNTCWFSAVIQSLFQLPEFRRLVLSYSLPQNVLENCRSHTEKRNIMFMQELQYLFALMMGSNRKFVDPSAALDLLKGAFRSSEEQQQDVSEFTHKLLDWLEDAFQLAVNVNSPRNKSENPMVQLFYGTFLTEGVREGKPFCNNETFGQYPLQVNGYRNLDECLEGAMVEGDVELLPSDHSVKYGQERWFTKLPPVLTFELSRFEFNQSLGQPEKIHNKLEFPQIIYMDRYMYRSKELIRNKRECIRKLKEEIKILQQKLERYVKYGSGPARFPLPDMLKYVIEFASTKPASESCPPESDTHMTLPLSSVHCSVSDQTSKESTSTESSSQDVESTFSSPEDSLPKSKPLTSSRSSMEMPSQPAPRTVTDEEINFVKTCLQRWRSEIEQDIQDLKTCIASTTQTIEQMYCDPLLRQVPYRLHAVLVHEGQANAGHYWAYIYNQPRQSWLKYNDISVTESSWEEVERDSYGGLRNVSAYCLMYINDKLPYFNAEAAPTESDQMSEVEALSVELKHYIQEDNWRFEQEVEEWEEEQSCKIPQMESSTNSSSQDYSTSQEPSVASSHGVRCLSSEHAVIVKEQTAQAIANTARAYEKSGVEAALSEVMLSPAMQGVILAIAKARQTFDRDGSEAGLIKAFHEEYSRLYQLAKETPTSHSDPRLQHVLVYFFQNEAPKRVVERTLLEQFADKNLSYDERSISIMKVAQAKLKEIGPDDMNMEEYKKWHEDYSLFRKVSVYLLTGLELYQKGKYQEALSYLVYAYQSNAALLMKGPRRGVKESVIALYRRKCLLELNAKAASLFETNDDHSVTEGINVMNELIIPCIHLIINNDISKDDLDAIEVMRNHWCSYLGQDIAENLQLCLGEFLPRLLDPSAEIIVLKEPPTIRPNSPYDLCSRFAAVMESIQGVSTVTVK
Assay: Ubiquitin-Rhodamine 110 Assay for USP28 Activity, Example A-1(b)
Assay type: biochemical
Conditions: Ubiquitin-Rhodamine 110 assay, Example A-1(b)
Summary of the method: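 Single-point screening used 10 μM compound with 90 min room-temperature incubation; follow-up dose-responses (25 μM top, 3-fold) used 75 pM USP28 1-1077 construct, 30 min compound preincubation, 25 nM Ub-Rh110, 20 min reaction, citric acid quench. Rh110 fluorescence normalised to no-enzyme and DMSO controls; IC50 from 4-parameter logistic fit.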

Cc1ccc2c(N)c(C(=O)N[C@H]3COc4cc(N5CCNCC5)cc(F)c4C3)oc2n1 [Example 169, 3-amino-N-[(3R)-5-fluoro-7-(piperazin-1-yl)-3,4-dihydro-2H-1-benzopyran-3-yl]-6-methylfuro[2,3-b]pyridine-2-carboxamide]
USP28 A-1(b) IC50 range: + (>2 μM)
